Source: patent publication US12498382B2, “Biomarkers for vitiligo” (INCYTE CORPORATION, priority 2019, dated 2025)

Test system: HaCaT cells
Experiment: Normalized expression of target genes in HaCaT cells stimulated with TNFα and IFNγ in presence/absence of JAK inhibitors (QuantiGene Plex)
Type: cell-based, human
Conditions: for MFI, normalized expression of IYK2: gene IYK2; for MFI, normalized expression of IYK2 / MFI, normalized expression of TNF / MFI, normalized expression of VEGFA: HaCaT, normalized to HPRT1, mean ± standard error; for MFI, normalized expression of TNF: gene TNF; for MFI, normalized expression of VEGFA: gene VEGFA
Description: Transformed human keratinocyte (HaCaT) cells were purchased from AddexBio (Catalog #T0020001) and cultured as outlined in Example 5. […] After 48 hours, cell culture media was removed from 24 well plates and replaced with 250 uL of media containing serial diluted drug, then incubated for 15 minutes at 37° C./5% CO2. After drug incubation, 250 uL of combinatory stimulation containing Recombinant Human Interferon gamma (R&D Systems, Catalog #285-IF-100) and Recombinant Human Tumor Necrosis Factor alpha (R&D Systems, Catalog #210-TA-020) was added to plates. The final concentration of Recombinant Human Interferon gamma and Recombinant Human Tumor Necrosis Factor alpha was 25 ng/mL of each cytokine. Cytokine stimulation added to wells containing drug brought the final concentrations for each drug treatment to 25 nM, 50 nM, 100 nM, and 200 nM. Treated plates were mixed by gentle agitation for 30 seconds then incubated for 24 hours at 37° C./5% CO2. At the end of the 24 hour incubation media was immediately removed from each plate.
RNA was isolated from HaCaT cells using the QuantiGene Plex Assay reagents and protocols (Affymetrix, Catalog #QGP-232-M18042302) according to the manufacturer's guidelines. Cells were washed with 1×DPBS then lysed by incubation with provided QuantiGene lysis buffer for 30 minutes at 50-55° C. Cell lysates were incubated for 18-24 hours at 55° C. with capture beads and probe set designed to specifically hybridize to mRNA from targets of interest. Genes included housekeeping genes (e.g., HPRT1 and GAPDH) used for the normalization of the results. After the 18-24 hour incubation signal was amplified utilizing branched DNA methodologies, according to the manufacturer's procedures (Affymetrix, Catalog #QGP-232-M18042302). After hybridization and wash steps assay plate was read on the Luminex 200 and data were expressed as Net Median Fluorescence Intensity. Data was then normalized to the Net Median Fluorescence Intensity of the housekeeping gene HPRT1 (Table 14).

[1] = TNFα+IFNγ 25 ng/mL, Drug Conc 25 nM
[2] = TNFα+IFNγ 25 ng/mL, Drug Conc 50 nM
[3] = TNFα+IFNγ 25 ng/mL, Drug Conc 100 nM
[4] = TNFα+IFNγ 25 ng/mL, Drug Conc 200 nM
[5] = TNFα (25 ng/mL) and IFNγ (25 ng/mL), 1st (lowest, likely 25 nM) of 4 drug conc
[6] = TNFα (25 ng/mL) and IFNγ (25 ng/mL), 2nd (likely 50 nM) of 4 drug conc
[7] = TNFα (25 ng/mL) and IFNγ (25 ng/mL), 3rd (likely 100 nM) of 4 drug conc
[8] = TNFα (25 ng/mL) and IFNγ (25 ng/mL), 4th (highest, likely 200 nM) of 4 drug conc
[9] = drug without TNFα/IFNγ stimulation
[10] = no stimulation, Drug Conc 200 nM

Cc1n[nH]c(C)c1-c1cnn(C2(CC#N)CN(c3cc(F)c(C(=O)N[C@@H](C)C(F)(F)F)cc3F)C2)c1 [Cpd C, 4-[3-(Cyanomethyl)-3-(3′,5′-dimethyl-1H,1′H-4,4′-bipyrazol-1-yl)azetidin-1-yl]-2,5-difluoro-N-[(1S)-2,2,2-trifluoro-1-methylethyl]benzamide]
AREG normalized expression MFI [1]: 703.71 ± 20.69 | CCL17 normalized expression MFI [1]: 2.63 ± 0.4 | CCL18 normalized expression MFI [1]: 2.11 ± 0.28 | FLG normalized expression MFI [1]: 62.5 ± 8.63 | IL6 normalized expression MFI [1]: 135.32 ± 3.36 | IL8 normalized expression MFI [1]: 387.86 ± 17.53 | IL17A normalized expression MFI [1]: 0.87 ± 0.14 | IL22 normalized expression MFI [1]: 1.23 ± 0.21 | IL23A normalized expression MFI [1]: 42.15 ± 1.61 | IL31 normalized expression MFI [1]: 1.52 ± 0.37 | ILIA normalized expression MFI [1]: 1370.52 ± 35.28 | JAK1 normalized expression MFI [1]: 206.29 ± 6.84 | JAK2 normalized expression MFI [1]: 114.94 ± 2.16 | JAK3 normalized expression MFI [1]: 1.02 ± 0.19 | LOR normalized expression MFI [1]: 23.22 ± 10.14 | S100A7 normalized expression MFI [1]: 5.33 ± 1.21 | S100A12 normalized expression MFI [1]: 1.31 ± 0.16 | SERPINB3 normalized expression MFI [1]: 2.58 ± 0.41 | SERPINB4 normalized expression MFI [1]: 3.53 ± 0.5 | STAT1 normalized expression MFI [1]: 3103.89 ± 185.88 | STAT3 normalized expression MFI [1]: 1557.84 ± 58.15 | STAT4 normalized expression MFI [1]: 5.65 ± 0.44 | STAT5A normalized expression MFI [1]: 22.82 ± 1.77 | STAT5B normalized expression MFI [1]: 40.13 ± 1.97 | STAT6 normalized expression MFI [1]: 1020.89 ± 23.57 | AREG normalized expression MFI [2]: 719.73 ± 30.82 | CCL17 normalized expression MFI [2]: 2.94 ± 0.35 | CCL18 normalized expression MFI [2]: 2.13 ± 0.46 | FLG normalized expression MFI [2]: 59.01 ± 8.69 | IL6 normalized expression MFI [2]: 128.14 ± 6.83 | IL8 normalized expression MFI [2]: 369.89 ± 17.71 | IL17A normalized expression MFI [2]: 1.07 ± 0.16 | IL22 normalized expression MFI [2]: 1.4 ± 0.19 | IL23A normalized expression MFI [2]: 45.16 ± 2.92 | IL31 normalized expression MFI [2]: 1.59 ± 0.33 | ILIA normalized expression MFI [2]: 1308.7 ± 45.12 | JAK1 normalized expression MFI [2]: 194.2 ± 8.24 | JAK2 normalized expression MFI [2]: 107.16 ± 2.86 | JAK3 normalized expression MFI [2]: 0.99 ± 0.16 | LOR normalized expression MFI [2]: 32.81 ± 17.47 | S100A7 normalized expression MFI [2]: 3.62 ± 0.78 | S100A12 normalized expression MFI [2]: 1.18 ± 0.18 | SERPINB3 normalized expression MFI [2]: 2.6 ± 0.69 | SERPINB4 normalized expression MFI [2]: 4.24 ± 1.6 | STAT1 normalized expression MFI [2]: 3049.62 ± 159.5 | STAT3 normalized expression MFI [2]: 1519.61 ± 69.92 | STAT4 normalized expression MFI [2]: 5.41 ± 0.33 | STAT5A normalized expression MFI [2]: 20.71 ± 1.77 | STAT5B normalized expression MFI [2]: 38.42 ± 2.28 | STAT6 normalized expression MFI [2]: 982.62 ± 14.34 | AREG normalized expression MFI [3]: 669.44 ± 30.13 | CCL17 normalized expression MFI [3]: 3.06 ± 0.47 | CCL18 normalized expression MFI [3]: 2.55 ± 0.87 | FLG normalized expression MFI [3]: 65.04 ± 9.31 | IL6 normalized expression MFI [3]: 112.13 ± 3.37 | IL8 normalized expression MFI [3]: 361.05 ± 16.02 | IL17A normalized expression MFI [3]: 0.89 ± 0.16 | IL22 normalized expression MFI [3]: 1.19 ± 0.2 | IL23A normalized expression MFI [3]: 48.11 ± 1.85 | IL31 normalized expression MFI [3]: 1.49 ± 0.35 | ILIA normalized expression MFI [3]: 1194.29 ± 12.27 | JAK1 normalized expression MFI [3]: 193.28 ± 4.55 | JAK2 normalized expression MFI [3]: 95.51 ± 3.13 | JAK3 normalized expression MFI [3]: 0.99 ± 0.15 | LOR normalized expression MFI [3]: 65.94 ± 37.89 | S100A7 normalized expression MFI [3]: 4.3 ± 1.17 | S100A12 normalized expression MFI [3]: 1.48 ± 0.32 | SERPINB3 normalized expression MFI [3]: 3.63 ± 1.32 | SERPINB4 normalized expression MFI [3]: 7.56 ± 3.67 | STAT1 normalized expression MFI [3]: 3028.93 ± 125.19 | STAT3 normalized expression MFI [3]: 1457.24 ± 54.48 | STAT4 normalized expression MFI [3]: 5.32 ± 0.46 | STAT5A normalized expression MFI [3]: 18.44 ± 1.85 | STAT5B normalized expression MFI [3]: 36.56 ± 1.18 | STAT6 normalized expression MFI [3]: 943.66 ± 25.99 | AREG normalized expression MFI [4]: 681.68 ± 16.1 | CCL17 normalized expression MFI [4]: 2.59 ± 0.34 | CCL18 normalized expression MFI [4]: 1.74 ± 0.62 | FLG normalized expression MFI [4]: 68.26 ± 8.04 | IL6 normalized expression MFI [4]: 101.17 ± 2.91 | IL8 normalized expression MFI [4]: 350.6 ± 11.85 | IL17A normalized expression MFI [4]: 0.87 ± 0.13 | IL22 normalized expression MFI [4]: 1.14 ± 0.25 | IL23A normalized expression MFI [4]: 51.86 ± 2.95 | IL31 normalized expression MFI [4]: 1.32 ± 0.34 | ILIA normalized expression MFI [4]: 1151.31 ± 20.01 | JAK1 normalized expression MFI [4]: 182.86 ± 4.07 | JAK2 normalized expression MFI [4]: 91.17 ± 2.15 | JAK3 normalized expression MFI [4]: 0.85 ± 0.15 | LOR normalized expression MFI [4]: 37.49 ± 25.57 | S100A7 normalized expression MFI [4]: 3.95 ± 1.14 | S100A12 normalized expression MFI [4]: 1.06 ± 0.2 | SERPINB3 normalized expression MFI [4]: 2.14 ± 0.67 | SERPINB4 normalized expression MFI [4]: 3.54 ± 1.5 | STAT1 normalized expression MFI [4]: 2977.26 ± 166.85 | STAT3 normalized expression MFI [4]: 1483.1 ± 51.73 | STAT4 normalized expression MFI [4]: 5.04 ± 0.36 | STAT5A normalized expression MFI [4]: 17.64 ± 1.46 | STAT5B normalized expression MFI [4]: 36.34 ± 1.97 | STAT6 normalized expression MFI [4]: 966.51 ± 12.3 | MFI, normalized expression of IYK2 [5]: 283.97 ± 8.59 | MFI, normalized expression of IYK2 [6]: 273.68 ± 7.44 | MFI, normalized expression of IYK2 [7]: 266 ± 6.82 | MFI, normalized expression of IYK2 [8]: 263.49 ± 5.05 | MFI, normalized expression of IYK2 [9]: 205.57 ± 10.87 | MFI, normalized expression of TNF [5]: 24.07 ± 1.43 | MFI, normalized expression of TNF [6]: 26.51 ± 1.84 | MFI, normalized expression of TNF [7]: 25.93 ± 1.59 | MFI, normalized expression of TNF [8]: 24.73 ± 1.29 | MFI, normalized expression of TNF [9]: 2.19 ± 0.56 | MFI, normalized expression of VEGFA [5]: 570.27 ± 10.88 | MFI, normalized expression of VEGFA [6]: 531.53 ± 11.24 | MFI, normalized expression of VEGFA [7]: 514.04 ± 7.46 | MFI, normalized expression of VEGFA [8]: 492.12 ± 8.32 | MFI, normalized expression of VEGFA [9]: 199.88 ± 6.52 | AREG normalized expression MFI [10]: 242.5 ± 16.14 | CCL17 normalized expression MFI [10]: 0.99 ± 0.28 | CCL18 normalized expression MFI [10]: 1.56 ± 0.73 | FLG normalized expression MFI [10]: 211.48 ± 29.55 | IL6 normalized expression MFI [10]: 4.97 ± 0.36 | IL8 normalized expression MFI [10]: 55.48 ± 3.11 | IL17A normalized expression MFI [10]: 0.51 ± 0.1 | IL22 normalized expression MFI [10]: 0.71 ± 0.11 | IL23A normalized expression MFI [10]: 9.42 ± 0.97 | IL31 normalized expression MFI [10]: 0.79 ± 0.2 | ILIA normalized expression MFI [10]: 88.72 ± 5.9 | JAK1 normalized expression MFI [10]: 159.13 ± 7.08 | JAK2 normalized expression MFI [10]: 23.67 ± 0.92 | JAK3 normalized expression MFI [10]: 0.63 ± 0.1 | LOR normalized expression MFI [10]: 19.48 ± 9.66 | S100A7 normalized expression MFI [10]: 4.38 ± 1.15 | S100A12 normalized expression MFI [10]: 0.72 ± 0.18 | SERPINB3 normalized expression MFI [10]: 2.31 ± 0.77 | SERPINB4 normalized expression MFI [10]: 3.37 ± 1.57 | STAT1 normalized expression MFI [10]: 522.12 ± 14.19 | STAT3 normalized expression MFI [10]: 728.97 ± 20.48 | STAT4 normalized expression MFI [10]: 4.01 ± 0.45 | STAT5A normalized expression MFI [10]: 1.44 ± 0.41 | STAT5B normalized expression MFI [10]: 50.91 ± 4.38 | STAT6 normalized expression MFI [10]: 723.56 ± 20.76
